Experimental data: US10975056B2 (GlaxoSmithKline Intellectual Property Development Limited, priority 2016, dated 2021)

Experiments:
[1] = system: erythroid progenitor cells (EPCs); test: Cell growth analysis in day 7 EPCs (Cell Titer-Glo); assay type: cell-based; conditions: Homo sapiens, read-out: cell growth inhibition by 50%, average pGI50 (converted), 5 days
Experimental: Day 7 EPCs were cultured in duplicate plates with serially diluted Compound A for 5 days at 37° C. Wells were then analyzed for either induction of fetal hemoglobin (HbF,HbF ELISA) or cell growth (Cell Titer-Glo). In both cases, signal was normalized to vehicle-control treated cells.
All donors provided written informed consent for use of their samples, and the collection and use of the samples received institutional review board approval. All cryopreserved human bone marrow CD34+ cells used here were obtained from AlICells (Emeryville, Calif.) and were generally from different donors. The CD34+ cells were cultured to generate EPCs at day 7. […]
At the time of compound treatment, frozen day 7 EPCs prepared as described above were thawed, washed once and re-suspended in complete culture media as described above with the exception of an increase of rhEPO to 3 U/mL. Cells were counted and diluted to […] for plating into assay plates. […]
Cell growth assays were performed on cell culture plates after 5 days incubation at 37° C. with 5% CO2. […] The plates were then incubated at room temperature for 10 min prior to reading on ViewLux 1430 (Perkin Elmer) using a luminescence protocol. Average reading of control wells (16 wells in column 6 of each assay plate) containing DMSO only were used as the basal level for normalization. […]

[2] = system: SCD transgenic mice; test: Fetal hemoglobin in SCD transgenic mouse model, F-reticulocytes and F-RBCs by flow cytometry; assay type: in vivo; conditions: oral, 10 or 50 mg/kg BID daily, measured by flow cytometry
Text: FIG. 2B depicts the effect of Compound A on fetal hemoglobin in the transgenic mouse model.

[3] = system: human hemoglobin transgenic mice (sickle cell disease model); test: Sickle cell mouse model, fetal hemoglobin induction in vivo; conditions: for increase in % F RBCs / increase in % F reticulocytes: 2 week dose period; for increase in % HbF protein: two weeks
Text: A mouse model of sickle cell disease was utilized to measure the in vivo efficacy of Compound A previously shown to have potent in vitro activity in human primary erythroid progenitor cells derived from normal bone marrow or sickle cell patient peripheral blood mononuclear cells.
The in vivo activity of Compound A was investigated in the sickle cell mouse model in accordance with US/UK standards of animal care.
Male and female human hemoglobin transgenic mice [B6; 129-Hbatm1(HBA)Tow/Hbbtm2(HBG1,HBB*)Tow/J Mice (Jackson Laboratories, Me.)] were approximately 6-8 weeks old and weighed approximately 15-25 grams at the initiation of the studies. To the extent possible, groups were gender balanced and comprised of 6 mice.
Mice were administered vehicle (10% DMA/90% PEG400), 10 or 50 mg/kg Compound A twice daily (BID) by oral route five days per week, over a two week period.
At the end of the dosing period, mice were euthanized by CO2 asphyxiation and blood from the vena cava was collected into EDTA tubes for fetal hemoglobin analysis. % HbF protein was determined by high performance liquid chromatography and % F cells (HbF expressing erythrocytes) were determined by flow cytometry. The mouse monoclonal anti-human HbF antibody conjugated to APC (Life Technologies, Grand Island, N.Y.) was used to identify HbF expressing erythroid cells. The nuclear dye, syto16, (Life Technologies) was used to separate the reticulocyte and RBC populations. Protein and cellular data were collected on the Bio-Rad D10 analyzer (Bio-Rad, Benicia, Calif.) and the FACs Canto I (BD BioSciences, San Jose, Calif.) respectively. Flow cytometry data was analyzed with Flowjo v7 software (Treestar, Inc Ashland. Oreg.). Group mean and standard deviation were determined for the control and treatment groups. Data were graphed and analyzed using 1-Way ANOVA with Tukey post test (Graphpad Prism v5 [La Jolla, Calif.]).

[4] = system: sickle cell disease (SCD) model transgenic mice; test: Fetal hemoglobin in sickle cell disease transgenic mouse model, % HbF protein by HPLC; assay type: in vivo; conditions: oral, 10 or 50 mg/kg BID daily, measured by HPLC
Text: FIG. 2A depicts the effect of Compound A on fetal hemoglobin in the transgenic mouse model.

For `CCc1c(C#N)c(SC(C(N)=O)c2ccccc2)nc(N(C)C)c1C#N` (stereo not shown) [Compound A, 2-{[3,5-dicyano-6-(dimethylamino)-4-ethylpyridin-2-yl]sulfanyl}-2-phenylacetamide], the GI50 [1] was 1260 nM, the “% F-RBCs” value [2] was “dose dependent increases” and the “% F-reticulocytes” value [2] was “dose dependent increases”. The “increase in % F RBCs” value ([3]; 10 mg/kg BID oral, p<0.001) was 6 fold, the “increase in % F reticulocytes” value ([3]; 10 mg/kg BID oral, p<0.001) was 4 fold and the “increase in % HbF protein” value ([3]; 10 mg/kg BID oral, p<0.05) was 5.4 fold. For the same compound, the “increase in % F RBCs” value ([3]; 50 mg/kg BID oral, p<0.001) was 8 fold, the “increase in % F reticulocytes” value ([3]; 50 mg/kg BID oral, p<0.001) was 9 fold and the “increase in % HbF protein” value ([3]; 50 mg/kg BID oral, p<0.001) was 10.3 fold. For the same compound, the “% HbF protein” value [4] was “dose dependent increases”.
